Source: patent US20130143869A1, “USE OF A CATIONIC AMPHIPHILIC DRUG FOR THE PREPARATION OF A FORMULATION FOR THE REDUCTION OF SUBCUTANEOUS ADIPOSE TISSUE” (Merz Pharma GmbH & CO. KGaA, priority 2010, published 2013)
Where a name gives a salt, the structure may show the parent alone.

How the values were obtained:
Assay type in all cases: cell-based
human adipocyte cells [1] = test: Cytotoxicity assay: metabolic activity (resazurin conversion) of human adipocytes
Procedure: (§1) HWP were obtained in passage two and differentiated in vitro to mature adipocytes. Briefly, cells were initially cultured in preadipocyte growth medium at 37° C. and 5% CO2 to 70-80% confluency. Then, cells were seeded at 40,000 cells/ml into 96-well flat bottom tissue culture plates and incubated overnight to allow attachment. Differentiation was initiated by changing the medium to preadipopcyte differentiation medium for an additional 72 hrs. After differentiation was induced, the medium was replaced by adipocyte nutrition medium that was refreshed every 2-3 days over a period of 14 days until termination of differentiation. Differentiation status was checked via nile red staining of control cells.
The test items 1 to 8 were prepared according to Table 1 to yield respective stock solutions. Said stock solutions were further diluted in assay media to obtain the double concentrated working solutions, which were subsequently diluted 1:2 in the final assay. […] Deoxycholate Na was selected as “reference compound”.
(§2) For the cytotoxicity assays in this study pre-adipocytes were seeded at 40,000 cells/ml into a 96-well microtiter flat bottom plate. The test items were prepared in separate plates starting with the double concentrated maximal test concentration followed by a 1:2 serial dilution (Chloroquine and Fluoxetine 1:3) and then added to the cells. The test items were tested at 6 replicates/concentration. Each plate included negative controls (media plus solvent, 6 replicates), a drug interference control (all concentrations, duplicates), a background control (14 replicates), a positive (=cytotoxic) control (6 replicates doxorubicin, 1 μM final) and a positive control for maximal LDH-release (2 replicates, 2% Triton-x 100 final).
(§3) Relative cell viability was determined after 48 hrs exposure based on metabolic activity (i.e. resazurin conversion). Using a Victor^3 1420 Multilabel Counter, the resazurin conversion to the fluorescent resorufin by metabolically active cells was recorded at 560Ex/590Em. Membrane integrity was measured after 6 hrs and 48 hrs and the enzymatic activity of released LDH in the cell supernatant after 30 min of incubation at 492 nmabsorption/690 nmreference by a spectrophotometer. The volume withdrawn from the cultures for the LDH-assay was not replaced to keep cells in a less disturbed environment. The assay was conducted in a multiplexed format.
In order to derive meaningful IC50 values from the primary data, the entire biological window of activity ranging from 0% to 100% viability should be covered and the resolution has to be sufficient. To improve data quality, the serial dilution factor used in previous experiments was reduced to a 1:2 and 1:3 dilution. […] IC50 (half maximal inhibitory concentration, calculated via Sigma Plot 10) values were determined for each test substance 1 to 8.
(§4) The effects on cytotoxicity in human adipocyte cells of a further 9 compounds were tested. The experimental set-up was identical to the one in example 1.

human adipocyte cells [2] = test: Membrane integrity: LDH release from human adipocytes (LDH assay); settings: for Rel. max. LDH release [%] 48 hrs: Example 1, 48 hrs, relative to Triton-x 100 maximal LDH release; for IC50: Homo sapiens, Adipocyte, read-out: IC50 48 hrs LDH
Procedure: as §1, §2, §3
For the dose-response relationship, absolute absorption (OD treated wells−background) was plotted against the test item concentrations representing LDH leakage from the cells. For a better estimation of the test items' potential influencing the membrane integrity, relative, maximal LDH release in percent (see Table 2) was also calculated according to the following formula: […]
as §4

Human white adipocytes = test: Apoptosis/necrosis detection, Annexin V-FITC/PI flow cytometry
From the text: The apoptotic program is characterized by certain morphologic features. Loss of plasma membrane asymmetry is a well established indicator for apoptotic cells. In apoptotic cells, the membrane phospholipid phosphatidylserine (PS) is translocated from the inner to the outer leaflet of the plasma membrane, thereby exposing PS to the external environment. In general, this PS translocation is preceded by caspase activation. Annexin V labelled with FITC is a Ca^2+ dependent phospholipid-binding protein with high affinity for PS and binds to cells with externalized PS. Cells stained with Annexin V*FITC are therefore considered in an early apoptotic stage.
Staining with Annexin V-FITC is typically used in conjunction with a vital dye such as propidium iodide (PI) to allow discrimination between early apoptotic and necrotic cells. Necrotic dying cells are PI positive only. Cells that are viable are Annexin V and PI negative; cells that entered apoptosis are Annexin V positive and PI negative and cells that are in post apoptotic and/or necrotic phase are both Annexin V and PI positive.
Human white adipocytes that had been differentiated in vitro from pre-adipocytes as describe above were used. Measurements were performed after 5 hrs to catch early apoptotic/necrotic events and after 24 hrs and 48 hrs for later stages. Naringenin at 500 μM (reported to induce apoptosis in adipocytes) was used as positive control and media plus solvent was used as negative control. Each compound was tested in three different concentrations. […] Two more concentrations, one below and one above the IC50 were added.
Flow cytometry was performed with a dual laser FC500. After completion of the staining procedure, tubes were grouped into a FC500 carousel for semi-automated data acquisition. Cells were first acquired in “Setup” mode to tune the parameters FS, SS, FL1 and FL2. After completion of the setup, baseline compensation was switched on and cells were acquired. Cells were acquired without life-gate but using FS threshold to exclude debris. All cells were acquired using individually corrected settings.
After completion of data acquisition, analysis was done using the CXP software. If necessary, software-based post acquisition compensation was performed to fine-correct for fluorescence overlap not adjusted for during the acquisition phase. Quadrant markers were set based on the negative controls.

[3] = Homo sapiens, Adipocyte, read-out: IC50 (metabolic activity after 48 hrs), Example 1, 48 hrs exposure, resazurin

With `CN(C)CCC[C@@]1(c2ccc(F)cc2)OCc2cc(C#N)ccc21` [Test substance 3, Escitalopram oxalate] the IC50 (human adipocyte cells [1]; [3]) was 491 µM and the “Rel. max. LDH release [%] 48 hrs” value (human adipocyte cells [2]) was 88.0%.

In the case of `CN(C)CCCC1(c2ccc(F)cc2)OCc2cc(C#N)ccc21` (stereo not drawn) [Test substance 2, Citalopram HBr], the IC50 (human adipocyte cells [1]; [3]) is reported as 431 µM, the “Rel. max. LDH release [%] 48 hrs” value (human adipocyte cells [2]) is reported as 100.7% and the “Early Apoptosis [A-V*/PI*]” value (Human white adipocytes; 250 μM, 5 hrs) is reported as 21.5. The “Necrosis/ Late Apoptosis [A-V*/PI*]” value (Human white adipocytes; 250 μM, 5 hrs) was 0.6, the “Normal [A-V*/PI]” value (Human white adipocytes; 250 μM, 5 hrs) was 77.9 and the “Early Apoptosis [A-V*/PI*]” value (Human white adipocytes; 250 μM, 24 hrs) was 32.4. For the same compound, the “Necrosis/ Late Apoptosis [A-V*/PI*]” value (Human white adipocytes; 250 μM, 24 hrs) was 2.2, the “Normal [A-V*/PI]” value (Human white adipocytes; 250 μM, 24 hrs) was 65.4 and the “Early Apoptosis [A-V*/PI*]” value (Human white adipocytes; 250 μM, 48 hrs) was 23.1. The “Necrosis/ Late Apoptosis [A-V*/PI*]” value (Human white adipocytes; 250 μM, 48 hrs) was 3.3, the “Normal [A-V*/PI]” value (Human white adipocytes; 250 μM, 48 hrs) was 79.6 and the “Early Apoptosis [A-V*/PI*]” value (Human white adipocytes; 350 μM, 5 hrs) was 31.3. The “Necrosis/ Late Apoptosis [A-V*/PI*]” value (Human white adipocytes; 350 μM, 5 hrs) was 1.5, the “Normal [A-V*/PI]” value (Human white adipocytes; 350 μM, 5 hrs) was 67.2 and the “Early Apoptosis [A-V*/PI*]” value (Human white adipocytes; 350 μM, 24 hrs) was 57.6. For the same compound, the “Necrosis/ Late Apoptosis [A-V*/PI*]” value (Human white adipocytes; 350 μM, 24 hrs) was 4.7, the “Normal [A-V*/PI]” value (Human white adipocytes; 350 μM, 24 hrs) was 37.7 and the “Early Apoptosis [A-V*/PI*]” value (Human white adipocytes; 350 μM, 48 hrs) was 35.6. For the same compound, the “Necrosis/ Late Apoptosis [A-V*/PI*]” value (Human white adipocytes; 350 μM, 48 hrs) was 10.7, the “Normal [A-V*/PI]” value (Human white adipocytes; 350 μM, 48 hrs) was 53.7 and the “Early Apoptosis [A-V*/PI*]” value (Human white adipocytes; 450 μM, 5 hrs) was 30.5. The “Necrosis/ Late Apoptosis [A-V*/PI*]” value (Human white adipocytes; 450 μM, 5 hrs) was 1.1, the “Normal [A-V*/PI]” value (Human white adipocytes; 450 μM, 5 hrs) was 68.4 and the “Early Apoptosis [A-V*/PI*]” value (Human white adipocytes; 450 μM, 24 hrs) was 26. For the same compound, the “Necrosis/ Late Apoptosis [A-V*/PI*]” value (Human white adipocytes; 450 μM, 24 hrs) was 23.9, the “Normal [A-V*/PI]” value (Human white adipocytes; 450 μM, 24 hrs) was 50.1 and the “Early Apoptosis [A-V*/PI*]” value (Human white adipocytes; 450 μM, 48 hrs) was 44.9. For the same compound, the “Necrosis/ Late Apoptosis [A-V*/PI*]” value (Human white adipocytes; 450 μM, 48 hrs) was 26, the “Normal [A-V*/PI]” value (Human white adipocytes; 450 μM, 48 hrs) was 29.1 and the “apoptosis/necrosis induction in human adipocytes (in words)” value (Human white adipocytes; 5, 24, 48 hrs, concentrations as in Table 4) was “clear apoptosis after 5 hrs with virtually no necrosis”.

Compound `CNCC[C@H](Oc1cccc2ccccc12)c1cccs1` [Duloxetine] has an IC50 (human adipocyte cells [1]; Homo sapiens, Adipocyte, 48 h, read-out: IC50 48 hrs Resazurin) of 42.9 µM and an IC50 (human adipocyte cells [2]; 48 h) of ~31.9 µM.

For `COc1ccc([C@@H]2Sc3ccccc3N(CCN(C)C)C(=O)[C@@H]2OC(C)=O)cc1.Cl` [Test substance 6, Diltiazem HCl], the IC50 (human adipocyte cells [1]; read-out: IC50 (metabolic activity after 48 hrs), Example 1, 48 hrs exposure, resazurin) was 800 µM and the “Rel. max. LDH release [%] 48 hrs” value (human adipocyte cells [2]) was 94.5%.

With `CC(CCc1ccccc1)NCC(O)c1ccc(O)c(C(N)=O)c1` (stereo not drawn) [Test substance 7, Labetalol HCl] the IC50 (human adipocyte cells [1]; [3]) was 659 µM and the “Rel. max. LDH release [%] 48 hrs” value (human adipocyte cells [2]) was 101.1%.

`CCN(CC)CCCC(C)Nc1ccnc2cc(Cl)ccc12` (stereo not drawn) [Test substance 1, Chloroquine] was tested, and the IC50 (human adipocyte cells [1]; Homo sapiens, Adipocyte, 48 h, read-out: IC50 (metabolic activity after 48 hrs)) was 599 µM and the “Rel. max. LDH release [%] 48 hrs” value (human adipocyte cells [2]) was 101.8%.

`CN1CCN(CCCN2c3ccccc3Sc3ccc(C(F)(F)F)cc32)CC1` [Trifluoperazine] showed an IC50 (human adipocyte cells [1]; Homo sapiens, Adipocyte, read-out: IC50 48 hrs Resazurin, Example 2, 48 hrs) of 17.4 µM and an IC50 (human adipocyte cells [2]; Example 2, 48 hrs) of ~14.3 µM.
